Measurements as given in article PMC9571594, “Development of Semisynthetic Apoptosis-Inducing Agents Based on Natural Phenolic Acids Scaffold: Design, Synthesis and In-Vitro Biological Evaluation” (Molecules, 2022).
In brackets after ≈: the same amount, converted by molar mass. Several values for one entry are separate records, joined by “and”; a condition that tells them apart may be missing. Equal entries are not always repeated. Where two headings read alike, the source gives them in different places.

Tests used:
[1] = MTT cell viability assay on normal Vero cells (selectivity); format: cell-based; settings: African green monkey, Vero cells (normal kidney cells)
Description: (§1) MCF-7 cells (Human breast adenocarcinoma), HepG2 (human hepatocellular carcinoma), A549 (human lung adenocarcinoma), Caco-2 (colon carcinoma), PANC-1 (human pancreatic cancer), and Vero cells (derived from normal kidney cells) were supplied by (Holding Company for Biological Products and Vaccines VACSERA; Giza, Egypt).
(§2) The effect of parent compounds and their derivatives were assessed by (3-(4,5-dimethylthiazol-2-yl)-2,5diphenyl-tetrazolium bromide) MTT assay. […] After a merged sheet of cells developed, the growth media was decanted from the 96-well microtiter and refilled with different concentrations of compounds (µg/mL), and the plate was incubated at 37 °C for 48 h to minimize exposure to the dissolving agent (Supporting Information).
(§3) MTT solution (BIO BASIC CANADA INC) was prepared [5 mg/mL in phosphate buffered saline (PBS)], added to each well and incubated for 4 h, then after removing the media, 200 μL of DMSO was added to each well to solubilize the formazan crystals and the optical density of the formazan product was measured at 560 nm using microplate reader (mindray, MR-96A). The results were calculated as the mean of the three independent experiments. […]
(§4) Determination of sample cytotoxicity on cells (MTT protocol) […]
(§5) well) and incubated at 37°C for 24 hours to develop a complete monolayer sheet.
(§6) 2- Growth medium was decanted from 96 well micro titer plates after confluent sheet of cells were formed, cell monolayer was washed twice with wash media.
(§7) 3- two-fold dilutions of tested sample was made in RPMI medium with 2% serum […]
(§8) 4- 0.1 ml of each dilution was tested in different wells leaving 3 wells as control, receiving only maintenance medium.
(§9) 5- Plate was incubated at 37°C and examined. Cells were checked for any physical signs of toxicity, e.g. partial or complete loss of the monolayer, rounding, shrinkage, […]
(§10) 6- MTT solution was prepared (5mg/ml in PBS) (BIO BASIC CANADA INC).
(§11) 8- 20ul MTT solution were added to each well. Place on a shaking table, 150rpm for 5 minutes, to thoroughly mix the MTT into the media.
(§12) 10) Dump off the media. (dry plate on paper towels to remove residue if necessary. […]

[2] = test system: Vero normal cell line; assay: as above; format: cell-based
Description: as §1, §2, §3, §4, §5, §6, §7, §8, §9, §10, §11, §12

[3] = test system: Caco-2 cancer cell line; assay: MTT cell viability assay, Caco-2; format: cell-based
How it was run: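 Cells grown in RPMI 1640 with 10% FBS at 37 °C and 5% CO2 were exposed as 24 h monolayers to two-fold compound dilutions (µg/mL, RPMI with 2% serum) for 48 h at 37 °C. MTT (5 mg/mL in PBS) was added for 4 h, formazan dissolved in DMSO and OD read at 560 nm; values are the mean of three independent experiments.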

[4] = test system: A549 cells; assay: MTT cell viability assay, A549; format: cell-based, human
Description: (§13) MCF-7 cells (Human breast adenocarcinoma), HepG2 (human hepatocellular carcinoma), A549 (human lung adenocarcinoma), Caco-2 (colon carcinoma), PANC-1 (human pancreatic cancer), and Vero cells (derived from normal kidney cells) were supplied by (Holding Company for Biological Products and Vaccines VACSERA; Giza, Egypt). The cells were cultured in PRMI 1640 medium (Lonza, Switzerland) supplemented with 10% fetal bovine serum (Gibco), 1% penicillin and 1% streptomycin (Sigma Aldrich, Saint Louis, MO, USA) at 37 °C under an atmosphere of 5% CO2 and 95% air.
as §2, §3, §4, §5, §6, §7, §8, §9, §10, §11
(§14) 10) Dump off the media. (dry plate on paper towels to remove residue if necessary. […] 9 ش - ايلعلا هبضهلا - مطقملا / ىسيئرلا لمعملا […]

[5] = test system: Caco-2 cells; assay: Cell-cycle analysis by flow cytometry; format: cell-based; settings: Caco-2 cells; Pre-G1 = apoptotic population
How it was run: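 Caco-2 cells treated with test compounds or DMSO for 24h, then stained with Annexin V-FITC/PI in binding buffer for 5 min at room temperature in the dark. Viable, apoptotic and necrotic fractions and cell-cycle distribution determined by flow cytometry.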

[6] = test system: HepG2 cells; assay: MTT cell viability assay, HepG2; format: cell-based, human; settings: Homo sapiens, HepG2; MTT, 48 h, average of triplicates; read-out: IC50 (μM) ± SD HepG2
Description: as §13, §2, §3, §4, §5, §6, §7, §8, §9, §10, §11, §14

[7] = test system: MCF-7 cells; assay: MTT cell viability assay, MCF-7; format: cell-based, Human
Description: as §13, §2, §3, §4, §5, §6, §7, §8, §9, §10, §11, §14

COc1cc(/C=C/C(=O)O)ccc1O [Compound 2, Ferulic acid]
viability at 48 h, 15.625 ug/ml ([1]; 15.625 ug/ml): 100%
viability at 48 h, 31.25 ug/ml ([1]; 31.25 ug/ml): 99.6%
viability at 48 h, 62.5 ug/ml ([1]; 62.5 ug/ml): 95.5%
viability at 48 h, 125 ug/ml ([1]; 125 ug/ml): 70.2%
viability at 48 h, 250 ug/ml ([1]; 250 ug/ml): 33.2%
viability at 48 h, 500 ug/ml ([1]; 500 ug/ml): 17.5%
Toxicity % ([2]; 15.625 ug/ml): 0%
Toxicity % ([2]; 31.25 ug/ml): 0.365%
Toxicity % ([2]; 62.5 ug/ml): 4.501%
Toxicity % ([2]; 125 ug/ml): 29.81%
Toxicity % ([2]; 250 ug/ml): 66.79%
Toxicity % ([2]; 500 ug/ml): 82.48%
IC50 ([2]; Chlorocebus sabaeus, MTT report T-4-019-5, Conc. ug/ml): 196 µg/mL (≈ 1010 µM)
Toxicity % ([3]; Caco2, 15.625 ug/ml): 0.2882%
Toxicity % ([3]; Caco2, 31.25 ug/ml): 9.414%
Toxicity % ([3]; Caco2, 62.5 ug/ml): 22.57%
Toxicity % ([3]; Caco2, 125 ug/ml): 70.61%
Toxicity % ([3]; Caco2, 250 ug/ml): 88.18%
Toxicity % ([3]; Caco2, 500 ug/ml): 84.34%
viability at 15.625 µg/mL ([3]; Homo sapiens, Caco-2, Caco2, 15.625 ug/ml): 99.7%
viability at 31.25 µg/mL ([3]; Homo sapiens, Caco-2, Caco2, 31.25 ug/ml): 90.6%
viability at 62.5 µg/mL ([3]; Homo sapiens, Caco-2, Caco2, 62.5 ug/ml): 77.4%
viability at 125 µg/mL ([3]; Homo sapiens, Caco-2, Caco2, 125 ug/ml): 29.4%
viability at 250 µg/mL ([3]; Homo sapiens, Caco-2, Caco2, 250 ug/ml): 11.8%
viability at 500 µg/mL ([3]; Homo sapiens, Caco-2, Caco2, 500 ug/ml): 15.7%
IC50 ([3]; Homo sapiens, Caco-2, Caco2, MTT report T-4-019-5, Conc. ug/ml, read-out: IC50): 96.4 µg/mL
IC50 ([3]; Homo sapiens, Caco-2, MTT, 48 h, average of triplicates, parent compounds and doxorubicin (Table 2), read-out: IC50 (μM) ± SD Caco-2): 410 µM
Toxicity % ([4]; A549, 15.625 ug/ml): 0.8674%
Toxicity % ([4]; A549, 31.25 ug/ml): 1.115%
Toxicity % ([4]; A549, 62.5 ug/ml): 0.7435%
Toxicity % ([4]; A549, 125 ug/ml): 4.089%
Toxicity % ([4]; A549, 250 ug/ml): 59.11%
Toxicity % ([4]; A549, 500 ug/ml): 75.96%
IC50 ([4]; Homo sapiens, A549, MTT, 48 h, average of triplicates, read-out: IC50 (μM) ± SD A549): 1740 µM
viability at 15.625 µg/mL ([4]; Homo sapiens, A549, 15.625 ug/ml): 99.1%
viability at 31.25 µg/mL ([4]; Homo sapiens, A549, 31.25 ug/ml): 98.9%
viability at 62.5 µg/mL ([4]; Homo sapiens, A549, 62.5 ug/ml): 99.3%
viability at 125 µg/mL ([4]; Homo sapiens, A549, 125 ug/ml): 95.9%
viability at 250 µg/mL ([4]; Homo sapiens, A549, 250 ug/ml): 40.9%
viability at 500 µg/mL ([4]; Homo sapiens, A549, 500 ug/ml): 24%
IC50 ([4]; Homo sapiens, A549, MTT report T-4-019-5, Conc. ug/ml, read-out: IC50): 314 µg/mL
%Pre-G1 [5]: 13.22% and 13.22 ± 0.63%
IC50 [6]: 810 ± 2170 µM
IC50 ([7]; Homo sapiens, MCF7, MTT, 48 h, average of triplicates, read-out: IC50 (μM) ± SD MCF-7): 1120 µM
viability at 15.625 µg/mL ([7]; Homo sapiens, Mcf7, 15.625 ug/ml): 98.7%
viability at 31.25 µg/mL ([7]; Homo sapiens, Mcf7, 31.25 ug/ml): 99.4%
viability at 62.5 µg/mL ([7]; Homo sapiens, Mcf7, 62.5 ug/ml): 99.2%
viability at 125 µg/mL ([7]; Homo sapiens, Mcf7, 125 ug/ml): 84.9%
viability at 250 µg/mL ([7]; Homo sapiens, Mcf7, 250 ug/ml): 29.4%
viability at 500 µg/mL ([7]; Homo sapiens, Mcf7, 500 ug/ml): 11.7%
IC50 ([7]; Homo sapiens, Mcf7, MTT report T-4-019-5, Conc. ug/ml, read-out: IC50): 203 µg/mL
Toxicity % ([7]; Mcf7, 15.625 ug/ml): 1.286%
Toxicity % ([7]; Mcf7, 31.25 ug/ml): 0.6431%
Toxicity % ([7]; Mcf7, 62.5 ug/ml): 0.7503%
Toxicity % ([7]; Mcf7, 125 ug/ml): 15.11%
Toxicity % ([7]; Mcf7, 250 ug/ml): 70.63%
Toxicity % ([7]; Mcf7, 500 ug/ml): 88.32%
